Reference: patent publication US20150148235A1, “HERBICIDE-RESISTANT SUNFLOWER PLANTS WITH MULTIPLE HERBICIDE RESISTANT ALLELES OF AHASL1 AND METHODS OF USE” (NIDERA S.A., priority 2013, published 2015)
Where two headings read alike, the source gives them in different places.

How the values were obtained:
[1] = test system: AHAS enzyme, A122T Heterozygous sunflower; experiment: AHAS enzyme activity assay, leaf extract; type: biochemical, Helianthus annuus; conditions: A122T heterozygous hybrid (Set 2)
Experimental: (§1) Twelve greenhouse grown sunflower plants from each of the lines depicted in Table 21 were bulked and subjected to an AHAS enzyme activity assay via the method of Singh et al. (1988) Anal. Biochem. 171:173-179. Each activity assay was repeated twice. Due to the large number of samples, the experiment was split into two sets (Table 21).
(§2) Young, actively growing leaves, from four week old plantlets, were ground in a mortar and pestle with liquid N2 and extracted with a buffer composed of 100 mM Pyruvate, 200 mM KH2PO4, 20 mM MgCl2, 2 mM thiamine pyrophosphate and […]. Plant extracts were then spun through a 10 mL Zeba TM desalt spin column (Pierce #89893) as per the manufacturer's recommendation. The inhibition assay was performed as described by Singh et al. (1988) Anal. Biochem. 171:173-179. Assays were conducted in a 96-well format. Fifty μl of inhibitor was added to each well containing 50 μl of soluble protein extract to give final concentrations of 0.78, 1.56, 3.125, 6.25, 12.5, 25, 50 and 100 μM imazamox or 0.78, 1.56, 3.125, 6.25, 12.5, 25, 50 and 100 μM imazapyr. Zero herbicide controls were also included for each line. Reactions were processed as outlined by Singh et al. (1988) Anal. Biochem. 171:173-179. Absorbance was measured at 530 nm. AHAS activity, expressed as the mean of the absorbance values for each treatment, was presented as a percentage of the mean of the zero-herbicide controls.

[2] = test system: AHAS enzyme, WT sunflower line B7; experiment: AHAS enzyme activity assay, leaf extract; type: biochemical, Helianthus annuus; conditions: 100 μM
Experimental: as §1, §2

[3] = test system: sunflower GM40 (A122T), HA425 (A205V) and progeny; type: in vivo, Helianthus annuus
Experimental: To determine the phenotypic interactions of the resistance gene A122T and the Imr1 gene (A205V) already described in IMI-R sunflowers (HA425), F1, F2 and BC1F1 populations from the cross GM40 (A122T)/HA425 (A205V) were evaluated at two herbicide applications rates (80 and 320 g. a. i. Ha^−1 of imazapyr). […] When F2 and BC1F1 populations were scored at the higher herbicide rate (320 g. a. i. Ha-1), which discriminates both parents, segregation for susceptibility was observed. Only two phenotypic classes could be detected, a resistant class with plants without any injury or slight symptoms and a susceptible phenotype that was killed like the control line HA425.

[4] = test system: sunflower hybrids H1, H2, H3, H5, H6; conditions: in vivo
[5] = test system: sunflower hybrids H1, H2, H3, H5, H6; experiment: Field trial Venado Tuerto 2006, imazapyr applied at V8 or R1 stage, Phytotoxicity Index, Example 4; conditions: for Mean Phytotoxicity Index (scale 0-50): H5 (L3 × WT, 122/Wild type), 160 g ai/ha applied at R1

SMILES	AHAS activity ([1]; 50 μM) [%]	AHAS activity ([1]; 100 μM) [%]	AHAS activity ([2]; WT line B7, Set 1)	AHAS activity ([2]; WT line B7, Set 2)	susceptible plants in F2 and BC1F1 populations of GM40 (A122T)/HA425 (A205V) ([3]; 80 g a.i./ha (1x, lower rate))	response of control line HA425 ([3]; HA425 (A205V), 320 g a.i./ha)	Phytotoxicity Index (scale 0-50) [4]	Mean Phytotoxicity Index (scale 0-50) ([5]; 14 DAT)	Mean Phytotoxicity Index (scale 0-50) ([5]; 21 DAT)	Phytotoxicity Index (scale 0-50) ([5]; hybrids with at least one A122T allele (A122T/A122T, A122T/A205V, A122/WT), 160 g ai/ha at R1, 14 DAT)
COCc1cnc(C2=NC(C)(C(C)C)C(=O)N2)c(C(=O)O)c1 (stereo not shown) [imazamox]	30	30	17 % relative to the untreated co	11 % relative to the untreated co						
CC(C)C1(C)N=C(c2ncccc2C(=O)O)NC1=O (stereo not shown) [imazapyr]					No susceptible plants were observed	killed	greater than 35	11.7	23.3	less than 11.7
